# Measured values: patent US8951752B2, “N-demethyase genes and uses thereof” (priority 2011, dated 2015)
# Where “and” joins values, the source holds several entries; their conditions need not be identical. Identical values can stand only once.
# Columns and labels:
# [1] = target: T1, N-demethylase (Ndm: NdmA and NdmB subunits) (Pseudomonas putida, UniProt H9N289+H9N290); test: Methylxanthine N-demethylase activity assay with purified Ndm plus partially purified Ccr; format: biochemical, Pseudomonas putida CBB5; conditions: for product formed from paraxanthine: 7.4 mU / 7.4 units of Ndm, 90 minutes; for Products identified: same products at 500 and 200 μM substrate; for Relative N-demethylase activity: relative to paraxanthine
# T1 construct: lane 3, natural Ndm purified from P. putida CBB5; made in house; host or cells: purified from the natural strain Pseudomonas putida CBB5 (DEAE, Phenyl and Q Sepharose); not recombinant
# T1 sequence (H9N289 1-351): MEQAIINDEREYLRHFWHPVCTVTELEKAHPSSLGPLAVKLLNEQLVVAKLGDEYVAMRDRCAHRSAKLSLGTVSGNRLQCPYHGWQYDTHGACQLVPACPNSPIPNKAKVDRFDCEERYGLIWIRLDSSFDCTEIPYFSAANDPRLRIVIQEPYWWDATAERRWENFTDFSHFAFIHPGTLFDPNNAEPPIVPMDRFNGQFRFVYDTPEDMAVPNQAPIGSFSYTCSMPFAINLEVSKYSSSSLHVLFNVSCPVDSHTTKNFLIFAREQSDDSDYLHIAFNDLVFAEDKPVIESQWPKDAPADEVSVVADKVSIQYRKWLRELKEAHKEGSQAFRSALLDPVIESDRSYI
# T1 sequence (H9N290 1-355): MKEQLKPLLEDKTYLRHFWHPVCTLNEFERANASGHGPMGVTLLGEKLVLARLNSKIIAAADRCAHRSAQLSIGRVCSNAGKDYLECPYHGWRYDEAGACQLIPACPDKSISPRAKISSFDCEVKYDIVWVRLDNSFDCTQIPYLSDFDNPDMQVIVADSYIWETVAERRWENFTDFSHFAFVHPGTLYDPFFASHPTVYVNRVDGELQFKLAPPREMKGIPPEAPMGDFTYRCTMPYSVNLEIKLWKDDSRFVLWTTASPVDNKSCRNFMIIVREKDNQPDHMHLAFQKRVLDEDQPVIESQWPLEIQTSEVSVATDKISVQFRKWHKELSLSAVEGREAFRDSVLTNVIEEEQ
# Description: Methylxanthine N-demethylase activity assay contained, in 1-mL total volume, 0.5 mM methylxanthine, 1 mM NADH, 50 μM Fe(NH4)2(SO4)2, and an appropriate amount of Ndm (0.08-7.5 mg protein, depending on purity of the protein) in 50 mM KPi buffer. Approximately 4 U of partially purified Ccr was added to reaction mixture when assaying Ndm in Phenyl Sepharose and Q Sepharose eluant-fractions (Ccr was not added to the enzyme reaction mixture when assaying Ndm activity in DEAE Sepharose eluant-fractions because Ccr co-eluted with Ndm). The reaction mixture was incubated at 30° C. with 300 rpm shaking on an incubating microplate shaker (VWR). Periodically, a small aliquot was sampled from the reaction mixture and mixed with equal volume of acetonitrile for quantifying concentrations of methylxanthines and N-demethylated products by HPLC. One unit of N-demethylase activity was defined as the consumption of one μmole methylxanthine per minute. When Ndm was coupled with the reductase and ferredoxin components of naphthalene dioxygenase of Pseudomonas sp. strain 9816 (Haigler & Gibson, 1990a; Haigler & Gibson, 1990b), 30 and 100 μg of the respective proteins were used. Spinach ferredoxin reductase and ferredoxin were also substituted for Ccr as described by Subramanian et al. (1979).
# Determination of Kinetic Parameters. Apparent kinetic parameters of Ndm were determined by measuring the initial rate of disappearance (vo) of paraxanthine or 7-methylxanthine in 50 mM KPi buffer (pH 7.5) at 30° C. The paraxanthine and 7-methylxanthine concentrations ([S]) used in these experiments were from 20 to 500 μM. Substrates were incubated with Ndm and Ccr under standard conditions for 15 minutes. At 1, 5, 10, and 15 minutes, samples were removed from the reaction mixtures to quantitate substrate concentrations by HPLC. Plots of substrate concentrations against time were used to determine the initial rates of disappearance of substrates which were linear over 15 minutes. The apparent kinetic parameters were determined from Michaelis-Menten plots of Vo against [S] fitted with the equation
# Determination of Oxygen Requirement. Oxygen consumption by Ndm during N-demethylation of paraxanthine was determined in a closed reaction vessel equipped with a Clarke-type oxygen electrode (Digitial Modell 0, Rank Brothers Ltd., Cambridge, England). The electrode was calibrated by using glucose oxidase (Sigma) and glucose for consumption of oxygen. Ndm activity assay was performed at 30° C. in a total volume of 1 ml of air-saturated 50 mM KPi buffer (pH 7.5) with 100 μM paraxanthine, 200 μM NADH, 50 μM Fe(NH4)2(SO4)2, 0.2 mg purified Ndm, and 4 U partially purified Ccr. The reaction was initiated by adding Ndm and partially purified Ccr after equilibration of all other reaction components for 3.3 minutes. After 13 minutes, a 100-μL aliquot was withdrawn from the reaction, immediately mixed with equal volume of acetonitrile to stop the enzyme reaction, and analyzed for N-demethylation product by HPLC. Background oxygen consumption, possibly due to NADH oxidase enzyme activity in the partially purified Ccr, was quantitated in control reactions containing all reaction components except paraxanthine.
# Formaldehyde Determination. […] Twenty μL Nash reagent was added to 50 μl Ndm reaction sample plus 50 μl acetonitrile. This mixture was incubated at 51° C. for 12 minutes.
# NdmA-His6 = target: T2, NdmA-His6 (Pseudomonas putida, UniProt H9N289); test: Methylxanthine N-demethylase assay and kinetics, NdmA-His6 with His6-NdmD; format: biochemical, Pseudomonas putida CBB5
# T2 construct: made in house; host or cells: E. coli BL21(DE3)
# T2 sequence (H9N289 1-351): T1 sequence (H9N289 1-351)
# Description: (§1) Methylxanthine N-demethylase activity assay contained, in 1-ml total volume, 0.5 mM methylxanthine, 1 mM NADH, 50 μM Fe(NH4)2(SO4)2, and an appropriate amount of NdmA-His6 or NdmB-His6 (7.4 μg-2.5 mg protein depending on substrate specificity) in 50 mM KPi buffer (pH 7.5). Approximately 4 U of partially purified reductase, prepared as described previously (Summers et al., 2011) or 59 U of purified His6-NdmD was added to reaction mixture. Catalase from bovine liver (4,000 U) was also added to reactions containing His6-NdmD. The reaction mixture was incubated at 30° C. with 300 rpm shaking on an incubating microplate shaker (VWR, Radnor, Pa.). Periodically, a small aliquot was sampled from the reaction mixture and mixed with equal volume of acetonitrile for quantifying concentrations of methylxanthines and N-demethylated products by HPLC. One unit of N-demethylase activity was defined as the consumption of one […] methylxanthine per minute.
# (§2) Apparent kinetic parameters of NdmA-His6 and NdmB-His6 were determined by measuring the initial rate of disappearance (vo) of methylxanthines in 50 mM KPi buffer (pH 7.5) at 30° C. The initial substrate concentrations (ESI) used in these experiments were from 25 to 500 μM. Substrates were incubated with His6-NdmD plus either NdmA-His6 or NdmB-His6 under standard conditions for 15 minutes. At 1, 5, 10, and 15 minutes, samples were removed from the reaction mixtures to quantitate substrate concentrations by HPLC. Plots of substrate concentrations against time were used to determine the initial rates of disappearance of substrates which were linear over 15 minutes. The apparent kinetic parameters were determined from Michaelis-Menten plots of vo against [S] fitted with the equation
# NdmB-His6 = target: T3, NdmB-His6 (Pseudomonas putida, UniProt H9N290); test: Methylxanthine N-demethylase assay and kinetics, NdmB-His6 with His6-NdmD; format: biochemical, Pseudomonas putida CBB5
# T3 construct: made in house; host or cells: E. coli BL21(DE3)
# T3 sequence (H9N290 1-355): T1 sequence (H9N290 1-355)
# Description: as §1, §2
# His6-NdmD = His6-NdmD (Pseudomonas putida, UniProt H9N291); test: N-demethylase activity of purified His6-NdmD alone; format: biochemical, Pseudomonas putida CBB5
# Sequence of His6-NdmD (H9N291 1-588 with tags or gaps): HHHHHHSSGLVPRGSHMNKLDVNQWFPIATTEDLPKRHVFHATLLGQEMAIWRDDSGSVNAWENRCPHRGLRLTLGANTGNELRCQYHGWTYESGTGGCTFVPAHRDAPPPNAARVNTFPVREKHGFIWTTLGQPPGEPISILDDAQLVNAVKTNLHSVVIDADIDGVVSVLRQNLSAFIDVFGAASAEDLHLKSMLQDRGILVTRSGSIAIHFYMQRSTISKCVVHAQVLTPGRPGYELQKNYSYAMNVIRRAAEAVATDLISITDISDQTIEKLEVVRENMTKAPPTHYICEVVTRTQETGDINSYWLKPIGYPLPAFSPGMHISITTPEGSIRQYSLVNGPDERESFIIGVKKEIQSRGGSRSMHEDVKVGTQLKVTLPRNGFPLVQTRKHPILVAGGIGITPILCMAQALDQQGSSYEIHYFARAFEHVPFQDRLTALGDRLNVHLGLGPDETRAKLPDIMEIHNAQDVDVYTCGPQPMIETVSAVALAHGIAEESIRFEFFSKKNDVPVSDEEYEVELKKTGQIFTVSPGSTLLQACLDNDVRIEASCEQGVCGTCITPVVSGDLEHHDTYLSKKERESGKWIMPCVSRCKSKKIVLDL
# [2] = system: recombinant E. coli cells that contain NdmABCD; test: Conversion by recombinant E. coli cells without NdmE; format: cell-based; conditions: absence of NdmE
# [3] = system: E. coli cells expressing NdmABCDE; test: Conversion by recombinant E. coli cells with NdmE; format: cell-based
# [4] = system: cell extracts prepared from P. putida CBB5; test: NADH-dependent N-demethylase activity of CBB5 cell extracts; format: biochemical, Pseudomonas putida CBB5; conditions: 0.5 mM substrate, 7.2 mg mL^−1 protein
# Pseudomonas putida CBB5 = test: Resting cell degradation of caffeine in coffee extract, black tea extract and buffer by CBB5; format: cell-based
# bacteria = conditions: 0.1% concentration; cited from earlier work
smiles,measurement,setting,value
"Cn1cnc2[nH]c(=O)[nH]c(=O)c21 [7-Methylxanthine, 7-methylxanthine]",product formed from paraxanthine,[1],126.9 ± 6.40 µM
same,product formed from paraxanthine,[1]; listed as 7-methylxanthine,126.9 ± 6.4 µM
same,N-demethylation product present,"[1]; from paraxanthine, after 13 minutes",Approximately 39.9 μM
same,Products identified,[1],xanthine
same,Relative N-demethylase activity,[1]; substrate conc. 200 μM,664.2 ± 61.1
same,Relative N-demethylase activity,[1]; substrate conc. 500 μM,455.7 ± 17.6
same,N-demethylase activity,NdmA-His6; NdmA,inactive
same,Km,"NdmA-His6; NdmA-His6, 30° C., pH 7.5, ∞ where no activity",∞
same,N-demethylase activity,NdmB-His6; NdmB,no activity
same,Km,"NdmB-His6; NdmB-His6, 30° C., pH 7.5, ∞ where no activity",∞
same,activity of purified His6-NdmD,His6-NdmD,no activity
same,conversion by cells,[2],remained untouched
same,conversion product,[3],xanthine
same,N-demethylation by NdmC fraction,NdmC,sole substrate
"Cn1c(=O)c2c(ncn2C)n(C)c1=O [Caffeine, 1,3,7-trimethylxanthine]",Products identified,[1],"paraxanthine, and theobromine, and 7-methylxanthine, and xanthine"
same,Relative N-demethylase activity,[1]; substrate conc. 200 μM,48.2 ± 4.8
same,Relative N-demethylase activity,[1]; substrate conc. 500 μM,30.8 ± 1.7
same,Product,NdmA-His6; NdmA-His6,Theobromine
same,Product,"NdmA-His6; NdmA-His6, listed as caffeine",theobromine
same,Product,NdmB-His6; NdmB-His6,Paraxanthine
same,degradation rate compared with paraxanthine,[4],significantly slower
same,time for caffeine degradation,Pseudomonas putida CBB5; 18 mM (highest concentration) caffeine in buffer solution,2 h
same,time for caffeine degradation,Pseudomonas putida CBB5; 18 mM caffeine in coffee extract,6 h
same,time for caffeine degradation,Pseudomonas putida CBB5; diluted black tea extract (1 mM caffeine),≤ 0.667 h
same,time for caffeine disappearance,Pseudomonas putida CBB5; undiluted black tea extract (8 mM caffeine),40 min
same,conversion by cells,[2],"7-methylxanthine from caffeine, but not xanthine"
same,conversion product,[3],xanthine
same,N-demethylation by NdmC fraction,NdmC,not N-demethylated
same,effect on protein synthesis in bacteria and yeast,bacteria,inhibits protein synthesis
